Test: Receptor Radioligand Binding Studies: Human Embryonic Kidney 293 cells (HEK293) stably expressing rat orexin 1 receptor (Genebank accession number NM_001525) or Chinese ovary cells (CHO) stably expressing […] were grown to confluency in DMEM (Hyclone, cat #SH30022), 10% FBS, 1×Pen/Strep, 1× sodium pyruvate, 10 mM HEPES, 600 μg/mL G418 and DMEM/F12 (Gibco, Cat #11039), 10% FBS, 1×Pen/Strep, 600 μg/mL G418 media, respectively on 150 cm2 tissue culture plates, washed with 5 mM EDTA in PBS (HyClone Dulbecco's Phosphate Buffered Saline 1× with Calcium and Magnesium, Cat #SH30264.01, hereafter referred to simply as PBS) and scraped into 50 ml tubes. After centrifugation (2K×G, 5 min at 4° C.), the supernatant was aspirated and the pellets frozen and stored at −80° C. Cells were resuspended in PBS in the presence of 1 tablet of protease inhibitor cocktail (Roche, Cat. #11836145001) per 50 mL. Each cell pellet from a 15 cm plate was resuspended in 10 mL, stored on ice, and homogenized for 45 sec prior to addition to the reactions. Competition binding experiments in 96 well polypropylene plates were performed using [3H]-(1-(5-(2-fluoro-phenyl)-2-methyl-thiazol-4-yl)-1-((S)-2-(5-phenyl-(1,3,4)oxadiazol-2-ylmethyl)-pyrrolidin-1-yl)-methanone) (Moraveck Corporation, specific activity=35.3 Ci/mmol), diluted to a 10 nM concentration in PBS (4 nM final). Compounds were solubilized in 100% DMSO (Acros Organics, Cat. #61042-1000) and tested over a range of 7 concentrations (from 0.1 nM to 10 μM). The final concentration of DMSO in the reactions is equal to or less than 0.1%. Total and nonspecific binding was determined in the absence and presence of 10 μM almorexant. The total volume of each reaction is 200 μL (20 μL of diluted compounds, 80 μL of [3H]-(1-(5-(2-fluoro-phenyl)-2-methyl-thiazol-4-yl)-1-((S)-2-(5-phenyl-(1,3,4)oxadiazol-2-ylmethyl)-pyrrolidin-1-yl)-methanone) diluted in PBS and 100 μL of the cell suspension). Reactions were run for 60 min at room temperature and terminated by filtration through GF/C filter plates (PerkinElmer, Cat. #6005174) presoaked in 0.3% polyethylenimine using the cell harvester (PerkinElmer Filtermate). The plates were washed 3 times by aspirating 30 ml PBS through the plates. Plates were dried in 55° C. oven for 60 min, scintillation fluid was added, and the radioactivity was counted on a Topcount (Packard).

| Structure (SMILES) | Ki |
| --- | --- |
| COc1ccc(C(=O)N2CCC[C@@H](Nc3ncc(C(F)(F)F)cn3)[C@@H]2C)c(Cl)n1 (relative stereo) | > 10 µM |
| Cc1ccc(C(=O)N2CCC[C@@H](N(C)c3ccc(C(F)(F)F)cn3)[C@@H]2C)c(-n2nccn2)n1 (relative stereo) | > 10 µM |
| Cc1ccc(C(=O)N2CCC[C@@H](Nc3nnc(C(F)(F)F)s3)[C@@H]2C)c(-n2nccn2)n1 (relative stereo) | > 10 µM |
| COc1ccc(C(=O)N2CCC[C@@H](Nc3ccc(C(F)(F)F)cn3)[C@@H]2C)c(Cl)n1 (relative stereo) | > 10 µM |

From ChEMBL document CHEMBL5726080, “Substituted piperidine compounds and their use as orexin receptor modulators” (2017)
